{"source": "paper PMC6585632", "about": "(Clinical Pharmacology in Drug Development, 2018)", "key": {"[1]": {"type": "in vivo, human", "conditions": "for Steady state reached by: plasma trough concentrations; for Arithmetic Mean CLss/F (CV%): day 15 steady state"}, "[2]": {"assay": "Effect of a high-fat meal on single-dose pharmacokinetics", "type": "in vivo, human", "conditions": "for AUC / Cmax / half-life / Tmax: human, plasma, oral; for AUC: AUC0‐24h"}, "[3]": {"assay": "Steady-state pharmacokinetics in food effect cohorts", "type": "in vivo, human", "conditions": "for Tmax / Cmax / AUC / half-life: human, plasma, oral; for Cmax / AUC / half-life: cycle 1 day 15 steady state; for AUC: AUC0‐t"}, "[4]": {"assay": "Dose proportionality at steady state", "type": "in vivo, human", "conditions": "40–500 mg QD and 240–840 mg BID"}, "[5]": {"assay": "Safety: treatment-emergent adverse events", "type": "in vivo, human"}, "human hepatocytes": {"system": "human hepatocytes", "conditions": "incubation with human hepatocytes; ref Clovis Oncology, Inc., data on file; cited from earlier work"}, "[6]": {"conditions": "incubation with human liver microsomes; ref Clovis Oncology, Inc., data on file; cited from earlier work"}, "[7]": {"system": "Recombinant human cytochrome P450 (CYP) 2D6", "conditions": "recombinant human CYP2D6; ref Clovis Oncology, Inc., data on file; cited from earlier work"}, "[8]": {"conditions": "normal metabolizers vs hyperinducers; cited from earlier work"}, "[9]": {"conditions": "Part 3, single dose 600 mg, fasted"}, "[10]": {"conditions": "Part 3, single dose 600 mg, fed"}, "[11]": {"conditions": "Part 3, single dose 600 mg, high‐fat meal"}, "[12]": {"conditions": "40 mg, arithmetic mean, Part 1, single dose 40 mg, cycle 1 day –7 fasted, n 3"}, "[13]": {"conditions": "40 mg, median, Part 1, single dose 40 mg, cycle 1 day –7 fasted, n 3"}, "[14]": {"conditions": "40 mg, median, Part 1, single dose 40 mg, cycle 1 day 1 fed (high-fat meal), n 3"}, "[15]": {"conditions": "Part 3, 600 mg BID (n = 26), Grade 5"}}, "note": "“And” between values parts separate entries of the source, which are not always exact repeats. Equal values may be shown once. “Also recorded” adds a separate entry of the source. Read-outs that look alike come from different tables or passages of the source. Marks after values point to notes of the source that are not given here.", "data": [{"smiles": "CNCc1ccc(-c2[nH]c3cc(F)cc4c3c2CCNC4=O)cc1", "note": "[rucaparib]", "values": [{"measurement": "steady‐state accumulation ratio (Rac_AUC0‐12h), range over cohorts", "setting": "[1]; BID dosing 240‐840 mg", "value": "1.47 to 5.44"}, {"measurement": "Estimated mean CLss/F, range over cohorts", "setting": "[1]; BID dosing schedule", "value": "26.2 to 58.6", "unit": "L/h"}, {"measurement": "Steady state reached by", "setting": "[1]; BID dosing schedule", "value": "≤ 8", "unit": "cycle 1 day"}, {"measurement": "Arithmetic Mean CLss/F (CV%)", "setting": "[1]; Part 1, 40 mg QD oral", "value": "26.7 (59) L/h"}, {"measurement": "Arithmetic Mean CLss/F (CV%)", "setting": "[1]; Part 1, 80 mg QD oral", "value": "47.5 (23) L/h"}, {"measurement": "Arithmetic Mean CLss/F (CV%)", "setting": "[1]; Part 1, 160 mg QD oral, n = 3", "value": "41.6 (29) ^b L/h"}, {"measurement": "Arithmetic Mean CLss/F (CV%)", "setting": "[1]; Part 1, 240 mg BID oral, n = 2", "value": "27.3 ^a L/h"}, {"measurement": "Arithmetic Mean CLss/F (CV%)", "setting": "[1]; Part 1, 300 mg QD oral", "value": "46.7 (63) L/h"}, {"measurement": "Arithmetic Mean CLss/F (CV%)", "setting": "[1]; Part 1, 360 mg BID oral, n = 2", "value": "40.4 ^a L/h"}, {"measurement": "Arithmetic Mean CLss/F (CV%)", "setting": "[1]; Part 1, 480 mg BID oral, n = 6", "value": "26.2 (63) ^d L/h"}, {"measurement": "Arithmetic Mean CLss/F (CV%)", "setting": "[1]; Part 1, 500 mg QD oral", "value": "27.8 (35) L/h"}, {"measurement": "Arithmetic Mean CLss/F (CV%)", "setting": "[1]; Part 1, 600 mg BID oral, n = 4", "value": "58.6 (123) ^g L/h"}, {"measurement": "Arithmetic Mean CLss/F (CV%)", "setting": "[1]; Part 1, 840 mg BID oral, n = 1", "value": "29 ^c L/h"}, {"measurement": "Rac_Cmax at steady state, range over cohorts", "setting": "[1]; Part 1 BID cohorts", "value": "2.6 to 4.9"}, {"measurement": "Rac_Cmax at steady state, range over cohorts", "setting": "[1]; Part 1 QD cohorts", "value": "1.06 to 1.8"}, {"measurement": "steady‐state accumulation ratio (Rac_AUC0‐24h), range over cohorts", "setting": "[1]; QD dosing 40‐500 mg", "value": "1.60 to 2.33 and 1.6 to 2.33"}, {"measurement": "Estimated mean CLss/F, range over cohorts", "setting": "[1]; QD dosing schedule", "value": "26.7 to 47.5", "unit": "L/h"}, {"measurement": "Steady state reached by", "setting": "[1]; QD dosing schedule", "value": "≤ 8", "unit": "cycle 1 day"}, {"measurement": "CLss as share of the normal liver blood flow rate (1450 mL/min)", "setting": "[1]; at tested oral dose levels", "value": "≤ 24", "unit": "%"}, {"measurement": "CLss, estimated from CLss/F and oral bioavailability of 36%", "setting": "[1]; at tested oral dose levels", "value": "≤ 350", "unit": "mL/min"}, {"measurement": "Cmax", "setting": "[1]; human, plasma, oral, 500 mg, mean Cmax, range over cohorts, Part 1 QD cohorts 40‐500 mg, cycle 1 day 1 single dose", "value": "114 to 949", "unit": "ng/mL"}, {"measurement": "Tmax", "setting": "[1]; human, plasma, oral, Median tmax, range over cohorts, Part 1 QD cohorts", "value": "1.5 to 4", "unit": "h"}, {"measurement": "Tmax", "setting": "[1]; human, plasma, oral, cohort median tmax, range, across all doses and tablet strengths tested (Parts 1 and 3)", "value": "1.5 to 6", "unit": "h"}, {"measurement": "Tmax", "setting": "[1]; human, plasma, po, 360 mg, Median tmax (range), Part 1, 360 mg BID oral, day 1", "value": 3.23, "unit": "h"}, {"measurement": "effect of food (high‐fat meal) on rucaparib pharmacokinetics", "setting": "[2]; Part 1, single dose of 40 mg (n = 3) or 300 mg (n = 6)", "value": "No effect of food; also recorded: Minimal food effect"}, {"measurement": "median tmax delay by a high‐fat meal", "setting": "[2]; Part 3, single dose 600 mg", "value": 2.5, "unit": "h"}, {"measurement": "intersubject variability (CV%) of the geometric mean AUC0‐24h", "setting": "[2]; [9]", "value": 84.6, "unit": "%"}, {"measurement": "intersubject variability (CV%) of the geometric mean Cmax", "setting": "[2]; [9]", "value": 87.5, "unit": "%"}, {"measurement": "intersubject variability (CV%) of the geometric mean AUC0‐24h", "setting": "[2]; [10]", "value": 86.8, "unit": "%"}, {"measurement": "intersubject variability (CV%) of the geometric mean Cmax", "setting": "[2]; [10]", "value": 82.8, "unit": "%"}, {"measurement": "fed‐to‐fasted geometric mean ratio (90%CI) for AUC0‐24h", "setting": "[2]; [11]", "value": 138, "unit": "%"}, {"measurement": "fed‐to‐fasted geometric mean ratio (90%CI) for Cmax", "setting": "[2]; [11]", "value": 120, "unit": "%"}, {"measurement": "AUC", "setting": "[2]; 40 mg, arithmetic mean, Part 1, single dose 40 mg, cycle 1 day 1 fed (high-fat meal), n 2", "value": 794, "unit": "ng·h/mL"}, {"measurement": "AUC", "setting": "[2]; [12]", "value": 741, "unit": "ng·h/mL"}, {"measurement": "AUC", "setting": "[2]; 40 mg, median, Part 1, single dose 40 mg, cycle 1 day 1 fed (high-fat meal), n 2", "value": 794, "unit": "ng·h/mL"}, {"measurement": "AUC", "setting": "[2]; [13]", "value": 468, "unit": "ng·h/mL"}, {"measurement": "Cmax", "setting": "[2]; 40 mg, arithmetic mean, Part 1, single dose 40 mg, cycle 1 day 1 fed (high-fat meal), n 3", "value": 64.8, "unit": "ng/mL"}, {"measurement": "Cmax", "setting": "[2]; [12]", "value": 77.9, "unit": "ng/mL"}, {"measurement": "Cmax", "setting": "[2]; [14]", "value": 71.1, "unit": "ng/mL"}, {"measurement": "Cmax", "setting": "[2]; [13]", "value": 57.6, "unit": "ng/mL"}, {"measurement": "half-life", "setting": "[2]; 40 mg, t1/2, arithmetic mean, Part 1, single dose 40 mg, cycle 1 day 1 fed (high-fat meal), n 3", "value": 12.6, "unit": "h"}, {"measurement": "half-life", "setting": "[2]; 40 mg, t1/2, arithmetic mean, Part 1, single dose 40 mg, cycle 1 day –7 fasted, n 3", "value": 10.6, "unit": "h"}, {"measurement": "half-life", "setting": "[2]; 40 mg, t1/2, median, Part 1, single dose 40 mg, cycle 1 day 1 fed (high-fat meal), n 3", "value": 12.7, "unit": "h"}, {"measurement": "half-life", "setting": "[2]; 40 mg, t1/2, median, Part 1, single dose 40 mg, cycle 1 day –7 fasted, n 3", "value": 8.16, "unit": "h"}, {"measurement": "Tmax", "setting": "[2]; [14]", "value": 2.55, "unit": "h"}, {"measurement": "Tmax", "setting": "[2]; [13]", "value": 4, "unit": "h"}, {"measurement": "AUC", "setting": "[2]; 300 mg, arithmetic mean, Part 1, single dose 300 mg, cycle 1 day 1 fed (high-fat meal), n 5", "value": 6890, "unit": "ng·h/mL"}, {"measurement": "Mean (CV%) steady‐state CLss/F", "setting": "[3]; continuous 600 mg BID, Part 3, CV 45%", "value": 44.2, "unit": "L/h"}, {"measurement": "Tmax", "setting": "[3]; 40 mg", "value": 4, "unit": "h"}, {"measurement": "Cmax", "setting": "[3]; 40 mg, arithmetic mean, Part 1 food effect cohort, 40 mg QD, n 3", "value": 129, "unit": "ng/mL"}, {"measurement": "Cmax", "setting": "[3]; 40 mg, median, Part 1 food effect cohort, 40 mg QD, n 3", "value": 103, "unit": "ng/mL"}, {"measurement": "Tmax", "setting": "[3]; 300 mg", "value": 2.47, "unit": "h"}, {"measurement": "AUC", "setting": "[3]; 300 mg, arithmetic mean, Part 1 food effect cohort, 300 mg QD, t = 24 hours, n 3", "value": 13300, "unit": "ng·h/mL"}, {"measurement": "AUC", "setting": "[3]; 300 mg, median, Part 1 food effect cohort, 300 mg QD, t = 24 hours, n 3", "value": 5220, "unit": "ng·h/mL"}, {"measurement": "Cmax", "setting": "[3]; 300 mg, arithmetic mean, Part 1 food effect cohort, 300 mg QD, n 5", "value": 727, "unit": "ng/mL"}, {"measurement": "Cmax", "setting": "[3]; 300 mg, median, Part 1 food effect cohort, 300 mg QD, n 5", "value": 444, "unit": "ng/mL"}, {"measurement": "half-life", "setting": "[3]; 300 mg, t1/2, arithmetic mean, Part 1 food effect cohort, 300 mg QD, n 3", "value": 20, "unit": "h"}, {"measurement": "half-life", "setting": "[3]; 300 mg, t1/2, median, Part 1 food effect cohort, 300 mg QD, n 3", "value": 27.5, "unit": "h"}, {"measurement": "Tmax", "setting": "[3]; 600 mg", "value": 1.92, "unit": "h"}, {"measurement": "AUC", "setting": "[3]; 600 mg, arithmetic mean, Part 3, 600 mg BID, t = 10 hours, n 18", "value": 15800, "unit": "ng·h/mL"}, {"measurement": "AUC", "setting": "[3]; 600 mg, median, Part 3, 600 mg BID, t = 10 hours, n 18", "value": 12900, "unit": "ng·h/mL"}, {"measurement": "Cmax", "setting": "[3]; 600 mg, arithmetic mean, Part 3, 600 mg BID, n 18", "value": 1940, "unit": "ng/mL"}, {"measurement": "Cmax", "setting": "[3]; 600 mg, median, Part 3, 600 mg BID, n 18", "value": 1480, "unit": "ng/mL"}, {"measurement": "dose proportionality of plasma exposure", "setting": "[4]", "value": "approximately dose proportional"}, {"measurement": "deaths due to disease progression", "setting": "[5]; Part 1", "value": "Three"}, {"measurement": "treatment‐related deaths", "setting": "[5]; Part 1", "value": "No treatment‐related deaths"}, {"measurement": "treatment‐related deaths", "setting": "[5]; Part 3, 600 mg BID", "value": "No treatment‐related deaths"}, {"measurement": "Dyspnea", "setting": "[5]; [15]", "value": "1 (3.8%) n (%)"}, {"measurement": "Pulmonary embolism", "setting": "[5]; [15]", "value": "1 (3.8%) n (%)"}, {"measurement": "metabolic turnover rate", "setting": "human hepatocytes", "value": "slow metabolic turnover rates"}, {"measurement": "metabolic turnover rate", "setting": "[6]", "value": "slow metabolic turnover rates"}, {"measurement": "metabolism by recombinant enzyme", "setting": "[7]", "value": "able to metabolize rucaparib"}, {"measurement": "effect of CYP1A2 polymorphisms on pharmacokinetics", "setting": "[8]", "value": "no apparent effect"}]}]}
